Reference: patent publication US20260285850A1, “SUBSTITUTED OXAZOLIDINONES AND IMIDAZOLINONES AS HERBICIDES” (FMC CORPORATION, priority 2023, published 2026)

Key:
Assay type in all cases: in vivo
[1] = tested on: ducksalad (Heteranthera limosa); experiment: Test B flooded paddy test, visual plant response rating 0-100; conditions: 250 g ai/ha, Flood, applied to paddy water, evaluated after 13 days
How it was run: (§1)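 2-leaf plants; flood 3 cm over soil; compound dosed into paddy water; depth kept constant; greenhouse 13 d; visual scoring vs controls. Dash = no result.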

[2] = tested on: sedge, umbrella (small-flower umbrella sedge, Cyperus difformis); experiment: as above; conditions: 250 g ai/ha, Flood, applied to paddy water, evaluated after 13 days
How it was run: as §1

rice (Oryza sativa) = experiment: as above; conditions: 250 g ai/ha, Flood, applied to paddy water, evaluated after 13 days
How it was run: as §1

[3] = tested on: barnyardgrass (Echinochloa crusgalli); experiment: as above; conditions: 250 g ai/ha, Flood, applied to paddy water, evaluated after 13 days
How it was run: as §1

[4] = tested on: ryegrass, Italian (italian ryegrass, Lolium multiflorum); experiment: Test A postemergence application, visual injury rating 0-100
How it was run: (§2)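 Plants were grown in a loam soil-sand blend and treated with test chemical in a non-phytotoxic solvent mixture containing surfactant, either sprayed on soil preemergence or applied postemergence to 2-10 cm plants. After 10 days in a greenhouse, injury was scored visually against untreated controls, 0 meaning no effect and 100 complete control.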

soybean (Glycine max) [5] = experiment: as above
How it was run: as §2

[6] = tested on: wheat (Triticum aestivum); experiment: as above
How it was run: as §2

[7] = tested on: ragweed (common ragweed, Ambrosia artemisiifolia); experiment: as above
How it was run: as §2

corn (Zea mays) [8] = experiment: as above
How it was run: as §2

[9] = tested on: blackgrass (Alopecurus myosuroides); experiment: as above
How it was run: as §2

[10] = tested on: green foxtail (Setaria viridis); experiment: as above
How it was run: as §2

[11] = tested on: palmer (palmer amaranth, palmer pigweed, Amaranthus palmeri); experiment: as above
How it was run: as §2

[12] = tested on: oat, wild (wild oat, Avena fatua); experiment: as above
How it was run: as §2

kochia (Bassia scoparia) [13] = experiment: as above
How it was run: as §2

[14] = tested on: galium (catchweed bedstraw, Galium aparine); experiment: as above; conditions: Postemergence, 16 g ai/ha, greenhouse 10 days; 0 no effect, 100 complete control
How it was run: as §2

[15] = tested on: horseweed (Erigeron canadensis); experiment: as above
How it was run: as §2

[16] = tested on: barnyardgrass (Echinochloa crus-galli); experiment: as above
How it was run: as §2

[17] = tested on: ryegrass, Italian (italian ryegrass, Lolium multiflorum); experiment: Test A preemergence soil spray, visual injury rating 0-100; conditions: 10 days
How it was run: as §2

soybean (Glycine max) [18] = experiment: as above; conditions: 10 days
How it was run: as §2

[19] = tested on: wheat (Triticum aestivum); experiment: as above; conditions: 10 days
How it was run: as §2

[20] = tested on: ragweed (common ragweed, Ambrosia artemisiifolia); experiment: as above; conditions: 10 days
How it was run: as §2

corn (Zea mays) [21] = experiment: as above; conditions: 10 days
How it was run: as §2

[22] = tested on: blackgrass (Alopecurus myosuroides); experiment: as above; conditions: 10 days
How it was run: as §2

[23] = tested on: green foxtail (Setaria viridis); experiment: as above; conditions: 10 days
How it was run: as §2

[24] = tested on: palmer (palmer amaranth, palmer pigweed, Amaranthus palmeri); experiment: as above; conditions: 10 days
How it was run: as §2

[25] = tested on: oat, wild (wild oat, Avena fatua); experiment: as above; conditions: 10 days
How it was run: as §2

kochia (Bassia scoparia) [26] = experiment: as above; conditions: 10 days
How it was run: as §2

[27] = tested on: barnyardgrass (Echinochloa crus-galli); experiment: as above; conditions: 10 days
How it was run: as §2

[28] = 62 g ai/ha, postemergence, 10 days, 0 = no effect, 100 = complete control
[29] = Postemergence, 16 g ai/ha, greenhouse 10 days, 0 no effect, 100 complete control
[30] = 62 g ai/ha, 0 = no effect, 100 = complete control

For `CC1(C(=O)NC2CC=C(C(=O)OCC(F)F)C2)CN(c2cc(F)cc(F)c2)C(=O)O1` (stereo not drawn) [Compound 152], the “Plant response rating, Ducksalad (0 to 100 scale, 0 is no effect and 100 is complete control)” value [1] was 80, the “Plant response rating, Sedge, Umbrella (0 to 100 scale, 0 is no effect and 100 is complete control)” value [2] was 90 and the “Plant response rating, Rice (0 to 100 scale, 0 is no effect and 100 is complete control)” value (rice (Oryza sativa)) was 85. For the same compound, the “Plant response rating, Barnyardgrass (0 to 100 scale, 0 is no effect and 100 is complete control)” value [3] was 90, the “Ryegrass, Italian plant response rating (0-100)” value [4, 28] was 80 and the “Ryegrass, Italian plant response rating (0 to 100 scale)” value [4, 29] was 70. For the same compound, the “Soybean plant response rating (0-100)” value (soybean (Glycine max) [5]; [28]) was 80, the “Soybean plant response rating (0 to 100 scale)” value (soybean (Glycine max) [5]; [29]) was 60 and the “Wheat plant response rating (0-100)” value [6, 28] was 90. For the same compound, the “Wheat plant response rating (0 to 100 scale)” value [6, 29] was 80, the “Ragweed plant response rating (0-100)” value [7, 28] was 50 and the “Ragweed plant response rating (0 to 100 scale)” value [7, 29] was 20. The “Corn plant response rating (0-100)” value (corn (Zea mays) [8]; [28]) was 100, the “Corn plant response rating (0 to 100 scale)” value (corn (Zea mays) [8]; [29]) was 100 and the “Blackgrass plant response rating (0-100)” value [9, 28] was 100. The “Blackgrass plant response rating (0 to 100 scale)” value [9, 29] was 70, the “Foxtail, Green plant response rating (0-100)” value [10, 28] was 90 and the “Foxtail, Green plant response rating (0 to 100 scale)” value [10, 29] was 90. For the same compound, the “Pigweed, Palmer plant response rating (0-100)” value [11, 28] was 90, the “Pigweed, Palmer plant response rating (0 to 100 scale)” value [11, 29] was 60 and the “Oat, Wild plant response rating (0-100)” value [12, 28] was 90. For the same compound, the “Oat, Wild plant response rating (0 to 100 scale)” value [12, 29] was 80, the “Kochia plant response rating (0-100)” value (kochia (Bassia scoparia) [13]; [28]) was 90 and the “Kochia plant response rating (0 to 100 scale)” value (kochia (Bassia scoparia) [13]; [29]) was 90. For the same compound, the “Galium plant response rating (0 to 100 scale)” value [14] was 70, the “Horseweed plant response rating (0-100)” value [15, 28] was 70 and the “Horseweed plant response rating (0 to 100 scale)” value [15, 29] was 30. For the same compound, the “Barnyardgrass plant response rating (0-100)” value [16, 28] was 100, the “Barnyardgrass plant response rating (0 to 100 scale)” value [16, 29] was 100 and the “Ryegrass, Italian plant response rating” value ([17]; 16 g ai/ha, 0 to 100 scale) was 70. For the same compound, the “Ryegrass, Italian plant response rating (0-100)” value [17, 30] was 90, the “Soybean plant response rating” value (soybean (Glycine max) [18]; 16 g ai/ha, 0 to 100 scale) was 0 and the “Soybean plant response rating (0-100)” value (soybean (Glycine max) [18]; [30]) was 60. For the same compound, the “Wheat plant response rating” value ([19]; 16 g ai/ha, 0 to 100 scale) was 70, the “Wheat plant response rating (0-100)” value [19, 30] was 90 and the “Ragweed plant response rating” value ([20]; 16 g ai/ha, 0 to 100 scale) was 0. For the same compound, the “Ragweed plant response rating (0-100)” value [20, 30] was 30, the “Corn plant response rating” value (corn (Zea mays) [21]; 16 g ai/ha, 0 to 100 scale) was 10 and the “Corn plant response rating (0-100)” value (corn (Zea mays) [21]; [30]) was 60. For the same compound, the “Blackgrass plant response rating” value ([22]; 16 g ai/ha, 0 to 100 scale) was 0, the “Blackgrass plant response rating (0-100)” value [22, 30] was 0 and the “Foxtail, Green plant response rating” value ([23]; 16 g ai/ha, 0 to 100 scale) was 30. The “Foxtail, Green plant response rating (0-100)” value [23, 30] was 100, the “Pigweed, Palmer plant response rating” value ([24]; 16 g ai/ha, 0 to 100 scale) was 0 and the “Pigweed, Palmer plant response rating (0-100)” value [24, 30] was 90. For the same compound, the “Oat, Wild plant response rating” value ([25]; 16 g ai/ha, 0 to 100 scale) was 0, the “Oat, Wild plant response rating (0-100)” value [25, 30] was 70 and the “Kochia plant response rating” value (kochia (Bassia scoparia) [26]; 16 g ai/ha, 0 to 100 scale) was 90. The “Kochia plant response rating (0-100)” value (kochia (Bassia scoparia) [26]; [30]) was 90, the “Barnyardgrass plant response rating” value ([27]; 16 g ai/ha, 0 to 100 scale) was 30 and the “Barnyardgrass plant response rating (0-100)” value [27, 30] was 100.
